# Measurements from patent publication US20120058158A1, “Sublingual Pharmaceutical Composition Comprising a Neutral Oil” (priority 2009, published 2012).
# “Also recorded” adds a separate entry of the source. Counter-ions that a name gives are not always drawn. Like-named read-outs stand apart in the source and are kept apart here.
# Experiments:
# [1] = Single-dose pharmacokinetic study, artemether sublingual spray vs oral tablets; assay type: in vivo, human; settings: for λz elimination rate constant, Plasma Artemether / Cmax / Tmax / AUC(0-t) / Vd/F / half-life: n = 16, mean ± SD; for Cmax / Tmax / AUC(0-t) / Vd/F / half-life / bioavailability: male, human, plasma; for AUC(0-t): read-out: AUC0-12, Plasma Artemether; for Vd/F: read-out: V/F apparent volume of distribution, Plasma Artemether; for half-life: read-out: t1/2 elimination half-life, Plasma Artemether (converted); for bioavailability: other: sublingual, ± S.D.
# Description: Trials were carried out on healthy male adult human volunteers (16 subjects per cohort), and subject to normal ethical approval. Three single-dose regimes according to the present invention were studied, and compared to a regime using oral-dosed tablets, as follows: Spray formulations of artemether were prepared as detailed above, and administered, on a single occasion, to a group of volunteers by the sublingual route. […] Following administration of each dosage regime, blood samples were taken from the subjects, and plasma concentrations of artemether and its immediate metabolite dihydroartemesinin were determined, in order to compare bioavailability by the two routes.
# [2] = Solubility enhancement by heat or essential oil (menthol) in Miglyol; assay type: physicochemical; settings: heat or menthol added (separate solutions)
# [3] = Repeat-dose artemether sublingual spray study (avoidance of autoinduction); assay type: in vivo, human; settings: 30 mg artemether sublingual spray single on days 1 and 5, twice daily on days 2, 3 and 4
# Description: A similar avoidance of autoinduction is expected with delivery by the transmucosal buccal or nasal route. In confidential trials, volunteers followed the following treatment: A single administration of 30 mg artemether sublingual spray 6 mg/actuation on days 1 and 5 following an overnight fast, and twice daily administrations of 30 mg artemether sublingual spray 3 mg/actuation on days 2, 3, and 4 following a morning or evening meal. Blood samples were collected for pharmacokinetic analysis at the following time points: Day 1: Predose, 0.25, 0.5, 0.75, 1, 1.5, 2, 2.5, 3, 4, 6, 8, and 12 h after dosing. Days 2, 3, and 4: pre morning dose and 0.5, 1, 2 and 4 h after morning dose and pre evening dose and 1 hour after evening dose. Day 5: Predose, 0.25, 0.5, 0.75, 1, 1.5, 2, 2.5, 3, 4, 6, 8, 12 h and 24 h after dosing.
# [4] = Solubility tests in Miglyol 810; settings: Miglyol 810, magnetic stirring; amount and volume per drug as in the block
# physchem = settings: oil or lipid
# [5] = 15 mg, T1: single sublingual 15 mg Artemether sublingual spray, 3 mg per actuation
# [6] = 30 mg, T2: single sublingual 30 mg Artemether sublingual spray, 3 mg per actuation
# [7] = 30 mg, T3: single sublingual 30 mg Artemether sublingual spray, 6 mg per actuation
# [8] = po, 30 mg, T4: single oral 30 mg Artemether Tablets, 10 mg per Tablet
compound,measurement,setting,value
CO[C@H]1O[C@@H]2O[C@@]3(C)CC[C@H]4[C@H](C)CC[C@@H]([C@H]1C)[C@@]24OO3 [Artemether],"absorption (comparison of AUC0-12), sublingual spray vs oral tablet dosing","[1]; 12 hours following the doses, preliminary results",significant and surprisingly higher absorption
same,"λz elimination rate constant, Plasma Artemether","[1]; T1: single sublingual 15 mg Artemether sublingual spray, 3 mg per actuation",1.11 ± 0.40 h⁻¹
same,"λz elimination rate constant, Plasma Artemether","[1]; T2: single sublingual 30 mg Artemether sublingual spray, 3 mg per actuation",0.56 ± 0.20 h⁻¹
same,"λz elimination rate constant, Plasma Artemether","[1]; T3: single sublingual 30 mg Artemether sublingual spray, 6 mg per actuation",0.59 ± 0.25 h⁻¹
same,"λz elimination rate constant, Plasma Artemether","[1]; T4: single oral 30 mg Artemether Tablets, 10 mg per Tablet",0.31 ± 0.15 h⁻¹
same,Cmax,[1]; [5],16.1 ± 8.69 ng/mL
same,Tmax,[1]; [5],1.7 ± 0.68 h
same,AUC(0-t),[1]; [5],25.9 ± 13.9 ng·h/mL
same,Vd/F,[1]; [5],680 ± 330 L
same,half-life,[1]; [5],0.72 ± 0.3 h
same,Cmax,[1]; [6],32.1 ± 16.4 ng/mL
same,Tmax,[1]; [6],1.73 ± 0.82 h
same,AUC(0-t),[1]; [6],76.6 ± 43.1 ng·h/mL
same,Vd/F,[1]; [6],1000 ± 550 L
same,half-life,[1]; [6],1.39 ± 0.49 h
same,Cmax,[1]; [7],35.2 ± 23.9 ng/mL
same,Tmax,[1]; [7],1.67 ± 0.77 h
same,AUC(0-t),[1]; [7],71.1 ± 41.1 ng·h/mL
same,Vd/F,[1]; [7],1010 ± 490 L
same,half-life,[1]; [7],1.4 ± 0.59 h
same,bioavailability,"[1]; 15 mg, T1 (15 mg sublingual spray, 3 mg/actuation) vs T4 (30 mg oral tablets), read-out: F-value FT1-T4 (relative bioavailability of artemether)",167 ± 60%
same,bioavailability,"[1]; 30 mg, T2 (30 mg sublingual spray, 3 mg/actuation) vs T4 (30 mg oral tablets), read-out: F-value FT2-T4 (relative bioavailability of artemether)",224 ± 92%
same,bioavailability,"[1]; 30 mg, T3 (30 mg sublingual spray, 6 mg/actuation) vs T4 (30 mg oral tablets), read-out: F-value FT3-T4 (relative bioavailability of artemether)",209 ± 69%
same,Cmax,[1]; [8],10.1 ± 7.19 ng/mL
same,Tmax,[1]; [8],1.02 ± 0.86 h
same,AUC(0-t),[1]; [8],34.6 ± 21 ng·h/mL
same,Vd/F,[1]; [8],3900 ± 2900 L
same,half-life,[1]; [8],3.44 ± 4.26 h
CCCC1O[C@@H]2C[C@H]3[C@@H]4CCC5=CC(=O)C=C[C@]5(C)[C@H]4[C@@H](O)C[C@]3(C)[C@]2(C(=O)CO)O1 (stereo partly drawn) [Budesonide],solubility in Miglyol with the addition of heat or menthol,[2],appeared to dissolve; also recorded: soluble with the addition of heat or menthol
C[C@H]1[C@@H](O)O[C@@H]2O[C@@]3(C)CC[C@H]4[C@H](C)CC[C@@H]1[C@@]24OO3 [Dihydroartemesinin],"pharmacokinetic analysis of plasma dihydroartemesinin, day 1 vs day 5",[3],effectively identical response
Oc1ccc2c3c1O[C@H]1[C@@H](O)CC[C@@]4(O)[C@@H](C2)N(CC2CCC2)CC[C@]314 [Nalbuphine HCl],solubility in Miglyol,[4],not soluble
C=CCN1CC[C@]23c4c5ccc(O)c4O[C@H]2C(=O)CC[C@@]3(O)[C@H]1C5 [Naloxone],solubility in Miglyol,[4],sparingly soluble
O=C1CC[C@@]2(O)[C@H]3Cc4ccc(O)c5c4[C@@]2(CCN3CC2CC2)[C@H]1O5 [Naltrexone Base],solubility in Miglyol,[4],sparingly soluble
same,solubility in Miglyol with the addition of heat or menthol,[2],soluble with the addition of heat or menthol
CCCNC(C)C(=O)Nc1ccccc1C (stereo not drawn) [Prilocaine Base],solubility,physchem,~137 mg/mL
COc1cccc(C2(O)CCCCC2CN(C)C)c1 (stereo not drawn) [Tramadol HCl],solubility in Miglyol,[4],insoluble
